# Assay results as given in paper PMC3114813 (Environmental Health Perspectives, 2011).
# Residue numbers refer to the chain shown, from its start.
# Columns and labels:
# androgen receptor (AR) [1] = molecular target: T1, androgen receptor (AR) (Homo sapiens, UniProt P10275, Q868H); test: cell-based; details: for IC20: MDA-kb2, read-out: Antiandrogen IC20 (μM) MDA-kb2; for Antiandrogenic activity in the MDA-kb2 assay (in words): MDA-kb2 / 'our assay'; for ERR (environmental relevance ratio): total exposure score / IC20 (MDA-kb2), recalculated using experimental data
# T1 construct: MDA-kb2 cells are human breast cancer cells stably transfected with a firefly luciferase reporter gene; endogenous in cells; host or cells: MDA-kb2 (human breast cancer cells)
# T1 sequence (P10275 1-920 Q868H): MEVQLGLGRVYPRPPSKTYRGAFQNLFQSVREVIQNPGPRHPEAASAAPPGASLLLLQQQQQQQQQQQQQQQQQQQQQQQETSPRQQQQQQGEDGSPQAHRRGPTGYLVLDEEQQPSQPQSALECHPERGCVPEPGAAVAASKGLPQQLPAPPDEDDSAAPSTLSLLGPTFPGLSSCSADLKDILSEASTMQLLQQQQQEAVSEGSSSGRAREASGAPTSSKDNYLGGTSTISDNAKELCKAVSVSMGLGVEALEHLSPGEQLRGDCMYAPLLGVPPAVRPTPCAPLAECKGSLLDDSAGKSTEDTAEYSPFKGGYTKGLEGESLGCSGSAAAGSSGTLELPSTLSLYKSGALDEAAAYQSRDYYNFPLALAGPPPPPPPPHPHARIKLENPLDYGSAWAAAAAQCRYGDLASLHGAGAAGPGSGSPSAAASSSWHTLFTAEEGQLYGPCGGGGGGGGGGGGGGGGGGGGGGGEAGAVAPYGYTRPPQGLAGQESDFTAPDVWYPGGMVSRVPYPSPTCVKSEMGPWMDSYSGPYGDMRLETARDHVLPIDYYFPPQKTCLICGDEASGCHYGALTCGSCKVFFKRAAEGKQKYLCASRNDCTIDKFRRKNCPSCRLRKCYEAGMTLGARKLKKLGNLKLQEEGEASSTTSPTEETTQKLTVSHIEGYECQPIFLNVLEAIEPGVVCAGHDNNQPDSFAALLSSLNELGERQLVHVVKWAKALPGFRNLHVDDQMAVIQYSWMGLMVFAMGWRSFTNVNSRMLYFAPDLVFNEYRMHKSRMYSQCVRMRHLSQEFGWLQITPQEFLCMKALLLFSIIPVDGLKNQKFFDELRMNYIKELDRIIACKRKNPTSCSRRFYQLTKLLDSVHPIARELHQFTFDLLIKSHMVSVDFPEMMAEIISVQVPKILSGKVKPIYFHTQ
# Procedure: (§1) MDA-kb2 cells are human breast cancer cells stably transfected with a firefly luciferase reporter gene that is driven by an androgen-response element–containing promoter ([Wilson et al. 2002]). Details of the modified assay were published previously ([Ermler et al. 2010]). Briefly, cells were seeded at a concentration of 1 × 10^5 cells/mL in phenol red–free Leibowitz-15 medium (Invitrogen Ltd., Paisley, UK) containing 10% (charcoal-stripped) fetal calf serum (Invitrogen Ltd.) in white luminometer plates and allowed to attach for 24 hr. Cells were then exposed to eight serial dilutions of selected pesticides with or without DHT (0.25 nM). After 24 hr, luciferase activity was determined with SteadyGlo assay reagent (Promega UK Ltd., Southampton, Hampshire, UK) and measured in a plate reader (FLUOstar Optima, BMG Labtech GmbH, Offenburg, Germany). […] All concentrations were tested in duplicate over two plates, and each pesticide was measured at least twice in separate experiments. For comparative purposes, luminescence was normalized to DHT alone at coexposure concentration (maximum response, 100%) and solvent-only (ethanol) controls (minimum response, 0%). […] Pesticides were initially tested over a concentration range of 0.64 nM–50 μM (5× dilutions) as a range-finding exercise. Subsequently, the concentration ranges were modified to reflect the potency and toxicity of each individual compound. […] Sixty percent of the pesticides were repeat tested using the same product but with new stock solutions and by a different experimenter.
# (§2) To analyze antiandrogenic action, raw luminescence readings were normalized on a plate-by-plate basis to the means of the positive DHT controls (n = 8) and the solvent controls (n = 8) ([Ermler et al. 2010]). […] Specifically, a variety of nonlinear regression models were fitted independently to the same data set, and the best-fitting model was selected using a statistical goodness-of-fit criterion. […] Data considered to be statistically significant at p < 0.05 were analyzed using the best-fit approach as described above. All statistical analysis was performed using SAS statistical software (SAS Institute Inc., Cary, NC, USA). From the best-fitting model, we derived inhibitory concentrations for antiandrogenicity and effect concentrations for cytotoxicity.
# androgen receptor (AR) [2] = molecular target: T2, androgen receptor (AR) (Homo sapiens, UniProt P10275); test: cell-based; type: cell-based; details: for IC20: coincubated with DHT 6.4 nM, 53 hr at 28°C, Neg = no response was observed, read-out: Antiandrogen IC20 (μM) YAS
# T2 construct: expressed in transfected cells; host or cells: yeast (YAS strain)
# T2 sequence (P10275 1-920): T1 sequence (P10275 1-920 Q868H) with H868Q
# Procedure: (§3) Briefly, stimulation of the transfected AR causes a color change in the media, which is measured by absorbance at 540 nm (Labsystems Multiskan Multisoft, Vienna, VA, USA). Plates were also measured at 620 nm to measure cell growth (turbidity) to check for any cytotoxic effects that may have occurred. […] Incubation time was 53 hr at 28°C. […] Pesticide serial dilutions were tested in duplicate over two plates and were tested in two separate experiments.
# Specifically, a variety of nonlinear regression models were fitted independently to the same data set, and the best-fitting model was selected using a statistical goodness-of-fit criterion. […] Data considered to be statistically significant at p < 0.05 were analyzed using the best-fit approach as described above. All statistical analysis was performed using SAS statistical software (SAS Institute Inc., Cary, NC, USA). From the best-fitting model, we derived inhibitory concentrations for antiandrogenicity and effect concentrations for cytotoxicity.
# MDA-kb2 cells = details: for Cytotoxic EC20 (μM) MDA-kb2: EC20 = concentration that produces a 20% effect
# Procedure: as §1, §2
# yeast = test: YAS, cytotoxicity (turbidity at 620 nm); type: cell-based; details: for Cytotoxic EC20 (μM) YAS: EC20 = concentration that produces a 20% effect, yeast turbidity
# Procedure: as §3, with “The methods for the YAS have been described previously ([Sohoni and Sumpter 1998]). Briefly,” for “Briefly,”, “occurred. Pesticides were coincubated with DHT (6.4 nM).” for “occurred.”
# androgen receptor (AR) [3] = molecular target: T1, androgen receptor (AR); type: cell-based; details: androgenic in the absence of DHT; Neg = no response was observed
# Procedure: as §1, §2
# [4] = cited from earlier work; for Parent compound remaining on food commodities: stable on food commodities, ref EFSA 2007, 2010a, 2010b
# aromatase = test system: aromatase; set-up: method as in Vinggaard et al. 2000; details: human placental microsomes; ref Vinggaard et al. 2000; cited from earlier work
# [5] = set-up: method as in Lambright et al. 2000; Taxvig et al. 2007; details: ref Lambright et al. 2000; Taxvig et al. 2007; cited from earlier work
# rats = details: 12 mg/kg body weight/day, ref EFSA 2005; cited from earlier work
# adult male rats = details: 90 days, ref Ngoula et al. 2007, cited from earlier work
smiles,measurement,setting,value
COc1ccc(C(=CC(=O)N2CCOCC2)c2ccc(Cl)cc2)cc1OC [Dimethomorph],IC20,androgen receptor (AR) [1],0.263 µM
same,Antiandrogenic activity in the MDA-kb2 assay (in words),androgen receptor (AR) [1],antiandrogenic
same,ERR (environmental relevance ratio),androgen receptor (AR) [1],45.6
same,IC20,androgen receptor (AR) [2],38.5 µM
same,Cytotoxic EC20 (μM) MDA-kb2,MDA-kb2 cells,> 25 µM
same,Cytotoxic EC20 (μM) YAS,yeast,> 50 µM
same,Androgen EC20 (μM) MDA-kb2,androgen receptor (AR) [3],Neg
same,Parent compound remaining on food commodities,[4],> 70%
CCOc1ccc2c(c1)C(C)=CC(C)(C)N2 [Ethoxyquin],IC20,androgen receptor (AR) [1],10.7 µM
same,Antiandrogenic activity in the MDA-kb2 assay (in words),androgen receptor (AR) [1],in vitro AR antagonists
same,ERR (environmental relevance ratio),androgen receptor (AR) [1],0.75
same,IC20,androgen receptor (AR) [2],11.1 µM
same,Cytotoxic EC20 (μM) MDA-kb2,MDA-kb2 cells,> 50 µM
same,Cytotoxic EC20 (μM) YAS,yeast,> 200 µM
same,Androgen EC20 (μM) MDA-kb2,androgen receptor (AR) [3],Neg
CC1(C(=O)Nc2ccc(O)c(Cl)c2Cl)CCCCC1 [Fenhexamid],Cytotoxic EC20 (μM) MDA-kb2,MDA-kb2 cells,21.6 µM
same,Parent compound remaining on food commodities,[4],> 70%
N#Cc1c[nH]cc1-c1cccc2c1OC(F)(F)O2 [Fludioxonil],Cytotoxic EC20 (μM) MDA-kb2,MDA-kb2 cells,28.5 µM
same,Cytotoxic EC20 (μM) YAS,yeast,> 160 µM
same,Parent compound remaining on food commodities,[4],> 70%
C=CCOC(Cn1ccnc1)c1ccc(Cl)cc1Cl (centres unmarked) [Imazalil],Cytotoxic EC20 (μM) MDA-kb2,MDA-kb2 cells,19.0 µM
same,Aromatase inhibition,aromatase,inhibited aromatase
CON(C)C(=O)Nc1ccc(Cl)c(Cl)c1 [Linuron],Cytotoxic EC20 (μM) MDA-kb2,MDA-kb2 cells,> 50 µM
same,In vivo antiandrogen (in words),[5],known in vivo antiandrogens
CCN(CC)c1nc(C)cc(OP(=S)(OC)OC)n1 [Pirimiphos-methyl],Cytotoxic EC20 (μM) MDA-kb2,MDA-kb2 cells,> 50 µM
same,Cytotoxic EC20 (μM) YAS,yeast,> 200 µM
same,Testicular effect of maternal and postnatal exposure,rats,testicular tubular atrophy
same,Unchanged parent compound on stored grain,"[4]; stored grain, < 24 weeks, ref EFSA 2005",70%
same,Fertility,adult male rats; 125 mg/kg body weight/day,decreased fertility
same,Sperm density and mobility,adult male rats; 125 mg/kg body weight/day,decreased sperm density and mobility
same,"Testicular atrophy, lowest observed adverse effect level",adult male rats,41.67 mg/kg body weight/day
CCCN(CCOc1c(Cl)cc(Cl)cc1Cl)C(=O)n1ccnc1 [Prochloraz],Cytotoxic EC20 (μM) MDA-kb2,MDA-kb2 cells,12.5 µM
same,Aromatase inhibition,aromatase,inhibited aromatase
"CC12CC1(C)C(=O)N(c1cc(Cl)cc(Cl)c1)C2=O (centres unmarked) [Procymidone, reference compound]",IC50,"androgen receptor (AR) [1]; MDA-kb2, internal quality control for antiandrogenicity",0.53 µM
same,IC20,androgen receptor (AR) [1],0.163 µM
same,Antiandrogenic activity in the MDA-kb2 assay (in words),androgen receptor (AR) [1],in vitro AR antagonists
same,ERR (environmental relevance ratio),androgen receptor (AR) [1],202.5
same,IC20,androgen receptor (AR) [2],0.956 µM
same,Cytotoxicity in the MDA-kb2 assay (in words),MDA-kb2 cells,nontoxic
same,Cytotoxic EC20 (μM) MDA-kb2,MDA-kb2 cells,> 50 µM
same,Cytotoxic EC20 (μM) YAS,yeast,> 160 µM
same,Androgen EC20 (μM) MDA-kb2,androgen receptor (AR) [3],Neg
CC(C)(C)C(O)(CCc1ccc(Cl)cc1)Cn1cncn1 (centres unmarked) [Tebuconazole],Cytotoxic EC20 (μM) MDA-kb2,MDA-kb2 cells,38.9 µM
same,In vivo antiandrogen (in words),[5],known in vivo antiandrogens
Cc1ccc(N(SC(F)(Cl)Cl)S(=O)(=O)N(C)C)cc1 [Tolylfluanid],Antiandrogen IC20 (μM) MDA-kb2,androgen receptor (AR) [1],Neg
same,Antiandrogenic activity in the MDA-kb2 assay (in words),androgen receptor (AR) [1],lacked activity
same,Antiandrogenic activity in the YAS (in words),androgen receptor (AR) [2]; YAS,antiandrogenic
same,IC20,androgen receptor (AR) [2],0.234 µM
same,Cytotoxicity in the MDA-kb2 assay (in words),MDA-kb2 cells,cytotoxic
same,Cytotoxic EC20 (μM) MDA-kb2,MDA-kb2 cells,8.09 µM
same,Cytotoxic EC20 (μM) YAS,yeast,1.14 µM
same,Cytotoxicity in the YAS assay (in words),yeast; YAS,cytotoxic
same,Androgen EC20 (μM) MDA-kb2,androgen receptor (AR) [3],Neg
CCCC1COC(Cn2cncn2)(c2ccc(Cl)cc2Cl)O1 (centres unmarked) [propiconazole],Aromatase inhibition,aromatase,inhibited aromatase
CC(C)(C)C(=O)C(Oc1ccc(Cl)cc1)n1cncn1 (centres unmarked) [triadimefon],Aromatase inhibition,aromatase,inhibited aromatase
CC(C)(C)C(O)C(Oc1ccc(Cl)cc1)n1cncn1 (centres unmarked) [triadimenol],Aromatase inhibition,aromatase,inhibited aromatase
